SMILES strings stand for the structures.

This assay deals with T1, Recombinant (1-346) HPK1 (h) (Homo sapiens, UniProt Q92918).
T1 construct: Recombinant (1-346) HPK1 (h) is incubated with 8 mM MOPS pH 7.0
T1 sequence (Q92918 1-346): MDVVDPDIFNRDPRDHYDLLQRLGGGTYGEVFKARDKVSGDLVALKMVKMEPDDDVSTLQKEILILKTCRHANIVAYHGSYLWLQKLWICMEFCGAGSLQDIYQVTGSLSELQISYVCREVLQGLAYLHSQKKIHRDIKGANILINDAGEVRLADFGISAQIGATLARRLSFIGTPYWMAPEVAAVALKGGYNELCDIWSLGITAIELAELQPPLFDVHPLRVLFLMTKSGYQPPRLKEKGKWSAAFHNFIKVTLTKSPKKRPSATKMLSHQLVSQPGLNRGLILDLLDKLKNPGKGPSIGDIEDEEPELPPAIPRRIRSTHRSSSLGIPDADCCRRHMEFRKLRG
Nature of the assay: HPK1 Human STE Kinase Enzymatic Radiometric Assay. The note with it: read-out: HPK1 IC50 nM Range*. It counts as biochemical. On the procedure: A stock solution of 10 mM of test compound is prepared in DMSO. The compound plate was prepared by 3-fold and 9-point serial dilutions. […] The reaction is initiated by The addition of the Mg/ATP mix. After incubation for 40 minutes at RT, the reaction is stopped by the addition of phosphoric acid to a concentration of 0.5%.
As for `COC1CCN(Cc2cc(-c3cc(-c4ccc5c(c4)CCNC5=O)c(N)nc3F)ccc2N2CCSCC2)CC1` [I-512, 6-(2-amino-6-fluoro-5-(3-((4-methoxypiperidin-1-yl)methyl)-4-thiomorpholinophenyl)pyridin-3-yl)-3,4-dihydroisoquinolin-1(2H)-one], the half-inhibitory concentration (IC50) – broadly, the concentration that gives 50% inhibition – lay within 11 to 100 nM.
Turning to `Nc1nc(F)c(-c2ccc(OC3CCNCC3)c(C(F)(F)F)c2)cc1-c1ccc2c(c1)CCNC2=O` [I-190, 6-(2-amino-6-fluoro-5-(4-(piperidin-4-yloxy)-3-(trifluoromethyl)phenyl)pyridin-3-yl)-3,4-dihydroisoquinolin-1(2H)-one], the half-inhibitory concentration (IC50) fell in the range of 11 to 100 nM.
As for `Cc1c[nH]c(=O)c2ccc(-c3cc(-c4cccc(CN(C)C)c4)c(F)nc3N)cc12` [I-627, 6-(2-amino-5-(3-((dimethylamino)methyl)phenyl)-6-fluoropyridin-3-yl)-4-methylisoquinolin-1(2H)-one], the concentration for half-maximal inhibition (IC50) lay in the range of 101 to 1000 nM.
The figure for `CN(C)Cc1cc(-c2cc(-c3ccc4c(=O)[nH]cc(F)c4c3)c(N)nc2F)ccc1N1CCOCC1` [I-480, 6-(2-amino-5-(3-((dimethylamino)methyl)-4-morpholinophenyl)-6-fluoropyridin-3-yl)-4-fluoroisoquinolin-1(2H)-one] is 11 to 100 nM.
The figure for `Nc1nc(F)c(-c2ccc(N3CCOCC3)c(CN3CCOCC3)c2)cc1-c1ccc2c(c1)CCNC2=O` [I-496, 6-(2-amino-6-fluoro-5-(4-morpholino-3-(morpholinomethyl)phenyl)pyridin-3-yl)-3,4-dihydroisoquinolin-1(2H)-one] is 11 to 100 nM.
Consider `CC(=O)N1CCC(Oc2ccc(-c3cc(-c4ccc5c(c4)CCNC5=O)c(N)nc3F)cc2CN(C)C)CC1` [I-568, 6-(5-(4-((1-acetylpiperidin-4-yl)oxy)-3-((dimethylamino)methyl)phenyl)-2-amino-6-fluoropyridin-3-yl)-3,4-dihydroisoquinolin-1(2H)-one], for which the half-inhibitory concentration (IC50) was 0.1 to 10 nM.
Next, `Cc1nc2cc(-c3cc(-c4ccc(N5CCN(CCCC(F)F)CC5)cc4)c(F)nc3N)cc(F)c2c(=O)[nH]1` [I-467, 7-(2-amino-5-(4-(4-(4,4-difluorobutyl)piperazin-1-yl)phenyl)-6-fluoropyridin-3-yl)-5-fluoro-2-methylquinazolin-4(3H)-one]: 0.1 to 10 nM; `Cc1c[nH]c(=O)c2cc(F)c(-c3cc(-c4ccc(N5CCN(C(C)C)CC5)cc4)c(F)nc3N)cc12` [I-577, 6-(2-amino-6-fluoro-5-(4-(4-isopropylpiperazin-1-yl)phenyl)pyridin-3-yl)-7-fluoro-4-methylisoquinolin-1(2H)-one]: 0.1 to 10 nM.
The figure for `CN(C)Cc1cc(-c2cc(-c3cc4c(cc3F)C(=O)NCC4)c(N)nc2F)ccc1F` [I-618, 6-(2-amino-5-(3-((dimethylamino)methyl)-4-fluorophenyl)-6-fluoropyridin-3-yl)-7-fluoro-3,4-dihydroisoquinolin-1(2H)-one] is 11 to 100 nM; for `COCCN(C)Cc1cc(-c2cc(-c3ccc4c(c3)CCNC4=O)c(N)nc2F)ccc1C1CCOCC1` [I-573, 6-(2-amino-6-fluoro-5-(3-(((2-methoxyethyl)(methyl)amino)methyl)-4-(tetrahydro-2H-pyran-4-yl)phenyl)pyridin-3-yl)-3,4-dihydroisoquinolin-1(2H)-one] it is 0.1 to 10 nM; for `CN(C)Cc1cc(-c2cc(-c3ccc4c(c3)CCNC4=O)c(N)nc2F)c(F)c(F)c1N1CCOCC1` [I-623, 6-(2-amino-5-(5-((dimethylamino)methyl)-2,3-difluoro-4-morpholinophenyl)-6-fluoropyridin-3-yl)-3,4-dihydroisoquinolin-1(2H)-one] it is 11 to 100 nM.
For the molecule `CO[C@H]1CCN(Cc2nc(-c3cc(-c4cc5c(cc4F)C(=O)NCC5)c(N)nc3F)ccc2N2CCOCC2)C1` [I-585, (S)-6-(6′-amino-2-fluoro-6-((3-methoxypyrrolidin-1-yl)methyl)-5-morpholino-[2,3′-bipyridin]-5′-yl)-7-fluoro-3,4-dihydroisoquinolin-1(2H)-one], the IC50 lay in the range of 0.1 to 10 nM.

These data come from US20240343704A1, “HALO-SUBSTITUTED AMINO PYRIDINE COMPOUNDS AS INHIBITORS OF THE HAEMATOPOIETIC PROGENITOR KINASE 1 (HPK1)” (priority 2021, published 2024).
